This passage reports IC50 results from US8895558B2, “Arylpiperazine-containing pyrrole 3-carboxamide derivatives for treating depressive disorders” (Green Cross Corporation, priority 2008, dated 2014).

Structures are written as SMILES. Counter-ions that a name gives are not always drawn.

The target of test [1] is T1, human recombinant 5-HT2C receptor (Homo sapiens, UniProt P28335).
T1 construct: purchased PerkinElmer
T1 sequence (P28335 33-458): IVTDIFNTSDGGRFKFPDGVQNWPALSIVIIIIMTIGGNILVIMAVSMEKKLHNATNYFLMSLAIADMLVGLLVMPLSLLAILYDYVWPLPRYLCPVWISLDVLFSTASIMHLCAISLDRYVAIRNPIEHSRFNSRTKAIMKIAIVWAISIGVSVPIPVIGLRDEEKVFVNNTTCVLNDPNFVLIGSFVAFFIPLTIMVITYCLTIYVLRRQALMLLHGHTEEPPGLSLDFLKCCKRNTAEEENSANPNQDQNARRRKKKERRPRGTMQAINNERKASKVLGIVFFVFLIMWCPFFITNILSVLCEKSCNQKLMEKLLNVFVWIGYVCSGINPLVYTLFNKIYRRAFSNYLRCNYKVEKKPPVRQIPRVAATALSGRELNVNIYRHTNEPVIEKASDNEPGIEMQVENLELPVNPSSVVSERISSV
The test can be described thus: Binding affinity for serotonin 5-HT2C receptor ([3H]Mesulergine). Conditions: CHO-K1 membranes, 1.3 nM [3H]Mesulergine. An outline of the steps:
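Competition binding with [3H]mesulergine; nonspecific binding defined with 100 uM mianserin. Incubation 60 min at 27, stopped by rapid filtration onto glass fiber filters presoaked in 0.5% PEI.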

Test [2] addresses T2, human recombinant serotonin 5-HT2A receptor (Homo sapiens, UniProt P28223).
T2 construct: purchased PerkinElmer Life and Analytical Sciences, USA; host or cells: CHO-K1
Description: Binding affinity for serotonin 5-HT2A receptor ([3H]Ketanserin). Conditions: CHO-K1 expressed receptor, 1 nM [3H]Ketanserin. An outline of the steps:
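Membranes from CHO-K1 cells expressing recombinant receptor (5 ug/well) incubated 60 min at 27 with 1 nM [3H]ketanserin in 50 mM Tris-HCl pH 7.4, 4 mM CaCl2, 0.1% ascorbic acid; mianserin 20 uM defined nonspecific binding. Filtration and counting; IC50 by nonlinear regression over 7-8 concentrations in duplicate.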

Test [3] deals with T3, human serotonin transporter (Homo sapiens, UniProt P31645).
T3 construct: purchased PerkinElmer; host or cells: HEK-293
The test can be described thus: Binding affinity for serotonin transporter ([3H]Imipramine). Conditions: HEK-293 membranes, 2 nM [3H]Imipramine. An outline of the steps: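 Membranes from HEK-293 cells expressing human serotonin transporter (5 ug/well) incubated with compound and 2 nM [3H]imipramine in 50 mM Tris-HCl pH 7.4, 120 mM NaCl, 5 mM KCl, 30 min at 27. Bound ligand separated by filtration onto glass fiber filters presoaked in 0.5% PEI, washed with ice-cold Tris-HCl/0.9% NaCl.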

T2 sequence (P28223 whole entry): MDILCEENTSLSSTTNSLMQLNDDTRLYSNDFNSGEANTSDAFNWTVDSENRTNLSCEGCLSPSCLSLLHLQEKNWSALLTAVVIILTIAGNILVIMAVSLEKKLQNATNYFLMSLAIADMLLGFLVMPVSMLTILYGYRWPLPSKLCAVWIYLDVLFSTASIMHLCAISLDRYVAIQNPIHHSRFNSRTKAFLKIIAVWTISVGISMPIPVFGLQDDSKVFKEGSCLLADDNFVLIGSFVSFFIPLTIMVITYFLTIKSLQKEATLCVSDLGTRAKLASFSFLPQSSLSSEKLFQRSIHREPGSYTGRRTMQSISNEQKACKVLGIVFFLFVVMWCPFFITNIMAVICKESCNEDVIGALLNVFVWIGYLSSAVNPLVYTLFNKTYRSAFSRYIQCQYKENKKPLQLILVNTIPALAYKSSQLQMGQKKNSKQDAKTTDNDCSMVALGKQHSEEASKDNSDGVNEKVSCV
T3 sequence (P31645 whole entry): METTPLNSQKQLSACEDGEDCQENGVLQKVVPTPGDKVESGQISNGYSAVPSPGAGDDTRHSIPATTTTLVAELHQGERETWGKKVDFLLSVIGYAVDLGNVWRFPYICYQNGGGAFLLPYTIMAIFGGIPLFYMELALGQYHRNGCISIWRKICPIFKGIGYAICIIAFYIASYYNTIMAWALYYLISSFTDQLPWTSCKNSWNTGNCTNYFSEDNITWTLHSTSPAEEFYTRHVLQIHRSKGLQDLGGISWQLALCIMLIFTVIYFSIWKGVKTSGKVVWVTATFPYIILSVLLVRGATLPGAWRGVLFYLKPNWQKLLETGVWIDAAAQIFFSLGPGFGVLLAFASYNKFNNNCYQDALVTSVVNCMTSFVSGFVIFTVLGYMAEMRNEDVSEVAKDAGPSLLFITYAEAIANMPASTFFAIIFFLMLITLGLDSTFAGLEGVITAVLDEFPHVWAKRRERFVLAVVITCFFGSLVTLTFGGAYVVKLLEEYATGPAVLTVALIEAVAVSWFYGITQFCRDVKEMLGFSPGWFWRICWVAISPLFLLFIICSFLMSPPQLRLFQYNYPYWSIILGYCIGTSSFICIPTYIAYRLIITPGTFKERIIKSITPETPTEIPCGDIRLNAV

Take `CCn1c(-c2ccc(OC)cc2)cc(C(=O)NCCCN2CCN(c3cccc(Cl)c3Cl)CC2)c1C` [Example 75, N-(3-(4-(2,3-dichlorophenyl)piperazin-1-yl)propyl)-1-ethyl-5-(4-methoxyphenyl)-2-methyl-1H-pyrrole-3-carboxamide hydrochloride]: the half-maximal inhibitory concentration (IC50) (usually the concentration needed to halve the response being measured) in test [1] amounted to 35 nM; in test [2], 141 nM; in test [3], 100 nM.
Regarding `Cc1[nH]c(-c2ccccc2)c(C)c1C(=O)NCCN1CCN(c2cccc(Cl)c2Cl)CC1` [Example 76, N-(2-(4-(2,3-dichlorophenyl)piperazin-1-yl)ethyl)-2,4-dimethyl-5-phenyl-1H-pyrrole-3-carboxamide hydrochloride], the concentration for half-maximal inhibition (IC50) in test [1] came out at 13 nM; in test [2] it was 37 nM; in test [3] it was 162 nM.
Consider `Cc1[nH]c(-c2ccccc2)c(C)c1C(=O)NCCCN1CCN(c2cccc(Cl)c2Cl)CC1` [Example 77, N-(3-(4-(2,3-dichlorophenyl)piperazin-1-yl)propyl)-2,4-dimethyl-5-phenyl-1H-pyrrole-3-carboxamide hydrochloride], for which the IC50 in test [1] was 16 nM; in test [2] it was 39 nM; in test [3] it was 36 nM.
Taken in the same sequence, the figures for `Cc1[nH]c(-c2ccccc2)c(C)c1C(=O)NCCCCN1CCN(c2cccc(Cl)c2Cl)CC1` [Example 78, N-(4-(4-(2,3-dichlorophenyl)piperazin-1-yl)butyl)-2,4-dimethyl-5-phenyl-1H-pyrrole-3-carboxamide hydrochloride] were 10 nM, 19 nM and 74 nM.
Taken in the same sequence, the figures for `Cc1c(C(=O)NCCCN2CCN(c3cccc(Cl)c3Cl)CC2)c(C)n(C)c1-c1ccccc1` [Example 79, N-(3-(4-(2,3-dichlorophenyl)piperazin-1-yl)propyl)-1,2,4-trimethyl-5-phenyl-1H-pyrrole-3-carboxamide hydrochloride] were 16 nM, 33 nM and 80 nM.
Turning to `CCn1c(C)c(C(=O)NCCCN2CCN(c3cccc(Cl)c3Cl)CC2)c(C)c1-c1ccccc1` [Example 80, N-(3-(4-(2,3-dichlorophenyl)piperazin-1-yl)propyl)-1-ethyl-2,4-dimethyl-5-phenyl-1H-pyrrole-3-carboxamide hydrochloride], the IC50 was found to be 42 nM in test [1], 47 nM in test [2] and 97 nM in test [3].
Taken in the same sequence, the figures for `CCCn1c(C)c(C(=O)NCCCN2CCN(c3cccc(Cl)c3Cl)CC2)c(C)c1-c1ccccc1` [Example 81, N-(3-(4-(2,3-dichlorophenyl)piperazin-1-yl)propyl)-2,4-dimethyl-5-phenyl-1-propyl-1H-pyrrole-3-carboxamide hydrochloride] were 75 nM, 25 nM and 78 nM.
Taken in the same sequence, the figures for `CCCn1c(-c2cccc(OC)c2)cc(C(=O)NCCCN2CCN(c3cccc(Cl)c3Cl)CC2)c1C` [Example 82, N-(3-(4-(2,3-dichlorophenyl)piperazin-1-yl)propyl)-5-(3-methoxyphenyl)-2-methyl-1-propyl-1H-pyrrole-3-carboxamide hydrochloride] were 43 nM, 138 nM and 196 nM.
For `COc1cccc(-c2cc(C(=O)NCCCN3CCN(c4cccc(Cl)c4Cl)CC3)c(C)[nH]2)c1` [Example 83, N-(3-(4-(2,3-dichlorophenyl)piperazin-1-yl)propyl)-5-(3-methoxyphenyl)-2-methyl-1H-pyrrole-3-carboxamide hydrochloride] the same measures were 20 nM, 20 nM and 59 nM.
As to `CCCn1c(-c2ccccc2)cc(C(=O)NCCCN2CCN(c3ccccc3OC)CC2)c1C` [Example 84, N-(3-(4-(2-Methoxyphenyl)piperazin-1-yl)propyl)-2-methyl-5-phenyl-1-propyl-1H-pyrrole-3-carboxamide], the IC50 was found to be 1410 nM in test [1], 953 nM in test [2] and 1080 nM in test [3].
Taken in the same sequence, the figures for `CCCn1c(-c2ccccc2)cc(C(=O)NCCCN2CCN(c3ccc(OC)cc3)CC2)c1C` [Example 87, N-(3-(4-(4-methoxyphenyl)piperazin-1-yl)propyl)-2-methyl-5-phenyl-1-propyl-1H-pyrrole-3-carboxamide dihydrochloride] were 4830 nM, 647 nM and 628 nM.
For `CCCn1c(-c2ccccc2)cc(C(=O)NCCCN2CCN(c3ccccc3Br)CC2)c1C` [Example 88, N-(3-(4-(2-bromophenyl)piperazin-1-yl)propyl)-2-methyl-5-phenyl-1-propyl-1H-pyrrole-3-carboxamide] the same measures were 633 nM, 221 nM and 225 nM.
For the compound `CCCn1c(-c2ccccc2)cc(C(=O)NCCCN2CCN(c3ccccc3C#N)CC2)c1C` [Example 90, N-(3-(4-(2-cyanophenyl)piperazin-1-yl)propyl)-2-methyl-5-phenyl-1-propyl-1H-pyrrole-3-carboxamide hydrochloride], the IC50 in test [1] is 637 nM; in test [2] it was 269 nM; in test [3], 223 nM.
Taken in the same sequence, the figures for `Cc1[nH]c(-c2ccccn2)cc1C(=O)NCCCN1CCN(c2cccc(Cl)c2Cl)CC1` [Example 91, N-(3-(4-(2,3-dichlorophenyl)piperazin-1-yl)propyl)-2-methyl-5-(pyridin-2-yl)-1H-pyrrole-3-carboxamide dihydrochloride] were 211 nM, 21 nM and 28 nM.
Turning to `Cc1c(C(=O)NCCCN2CCN(c3cccc(Cl)c3Cl)CC2)cc(-c2ccccn2)n1C` [Example 92, N-(3-(4-(2,3-dichlorophenyl)piperazin-1-yl)propyl)-1,2-dimethyl-5-(pyridin-2-yl)-1H-pyrrole-3-carboxamide dihydrochloride], the results for the IC50 in test [1], in test [2] and in test [3] were 267 nM, 43 nM and 110 nM, respectively.
Taken in the same sequence, the figures for `CCCn1c(-c2ccccn2)cc(C(=O)NCCCN2CCN(c3cccc(Cl)c3Cl)CC2)c1C` [Example 93, N-(3-(4-(2,3-dichlorophenyl)piperazin-1-yl)propyl)-2-methyl-1-propyl-5-(pyridin-2-yl)-1H-pyrrole-3-carboxamide dihydrochloride] were 639 nM, 58 nM and 397 nM.
For `CCCn1c(-c2ccccn2)cc(C(=O)NCCN2CCN(c3cccc(Cl)c3Cl)CC2)c1C` [Example 96, N-(2-(4-(2,3-dichlorophenyl)piperazin-1-yl)ethyl)-2-methyl-1-propyl-5-(pyridin-2-yl)-1H-pyrrole-3-carboxamide dihydrochloride] the same measures were 619 nM, 410 nM and 381 nM.
For `Cc1c(C(=O)NCCCN2CCN(c3cccc(Cl)c3Cl)CC2)cc(-c2cccnc2)n1C` [Example 100, N-(3-(4-(2,3-dichlorophenyl)piperazin-1-yl)propyl)-1,2-dimethyl-5-(pyridin-3-yl)-1H-pyrrole-3-carboxamide] the same measures were 209 nM, 49 nM and 92 nM.
Take `CCCn1c(-c2cccnc2)cc(C(=O)NCCCN2CCN(c3cccc(Cl)c3Cl)CC2)c1C` [Example 101, N-(3-(4-(2,3-dichlorophenyl)piperazin-1-yl)propyl)-2-methyl-1-propyl-5-(pyridin-3-yl)-1H-pyrrole-3-carboxamide]: the IC50 in test [1] stood at 344 nM; in test [2] it was 46 nM; in test [3] it was 133 nM.
Consider `Cc1c(C(=O)NCCCN2CCN(c3cccc(Cl)c3Cl)CC2)cc(-c2ccncc2)n1C` [Example 106, N-(3-(4-(2,3-dichlorophenyl)piperazin-1-yl)propyl)-1,2-dimethyl-5-(pyridin-4-yl)-1H-pyrrole-3-carboxamide], for which the IC50 was 175 nM in test [1], 39 nM in test [2] and 85 nM in test [3].
Taken in the same sequence, the figures for `CCCn1c(-c2ccncc2)cc(C(=O)NCCCN2CCN(c3cccc(Cl)c3Cl)CC2)c1C` [Example 107, N-(3-(4-(2,3-dichlorophenyl)piperazin-1-yl)propyl)-2-methyl-1-propyl-5-(pyridin-4-yl)-1H-pyrrole-3-carboxamide] were 420 nM, 34 nM and 78 nM.
For `O=C(NCCCN1CCN(c2cccc(Cl)c2Cl)CC1)c1cc(-c2ccccc2)[nH]c1Cl` [Example 114, 2-chloro-N-(3-(4-(2,3-dichlorophenyl)piperazin-1-yl)propyl)-5-phenyl-1H-pyrrole-3-carboxamide], the IC50 is 107 nM in test [1], 22 nM in test [2] and 59 nM in test [3].
